# From patent US20050059610A1 (priority 2003, published 2005)
# “Also recorded” adds a separate entry of the source.
# Key:
# HSP 72 = test: HSP expression in heart and lung tissue of unstressed rats (Western blot); type: in vivo, rat
# Procedure: GLN enhances heat shock protein expression in the unstressed and stressed myocardium. […] The increase was also observed for HSP 27 (another of the protective heat shock proteins) wherein the induction occurred as early as 4-6 hours and persisted for up to 48-72 hours.
# Tissues were then harvested four hours post-GLN administration, and HSP 72 expressions were analyzed by Western blot. The image shown is representative of those obtained in four different experiments. The graph represents a percent increase in HSP 72 over control. […] (*p<0.001, **p<0.01, ***p<0.05 compared to control by ANOVA.)
# [1] = test system: polymicrobial sepsis (2CLP); test: Cecal-ligation and double-puncture (2CLP) sepsis: survival, cytokines, lung HSP 72; type: in vivo, Sprague-Dawley rats
# From the text: Further, increased Interleukin-18 (IL-18) levels appear to play a critical role in cytokine-induced organ failure and can be predictive of mortality in sepsis patients.
# Increased Interleukin-18 (IL-18) levels appear to play a critical role in cytokine-induced organ failure and can be predictive of mortality in sepsis patients.
# endotoxin-induced sepsis = test: Lethal endotoxemia: survival, HSP expression, cytokine release; type: in vivo, rat; conditions: GLN concurrently with lethal doses of endotoxin
# Procedure: Evaluation of pro-inflammatory cytokine release was also assessed following endotoxemia.
# [2] = test system: polymicrobial sepsis and peritonitis (CLP); test: CLP peritonitis/polymicrobial sepsis, GLN 30 minutes after induction, with or without quercetin; type: in vivo, rat
# From the text: Cecal ligation and puncture (CLP) in the rat was chosen as the appropriate model.
# experimental SIRS (CLP) = test: Serum HSP72 (ELISA) and survival after CLP (experimental SIRS); type: in vivo, Sprague-Dawley rats
# [3] = test system: infection in patients following bone marrow transplantation; conditions: parenteral nutritional program supplemented with glutamine (Calder and Yapoob 1999); cited from earlier work
# serum HSP 70 = test: Serum HSP-70 levels in critically ill patients (surgical ICU), GLN vs control; type: in vivo, human; conditions: for Baseline HSP-70 / LN(Baseline HSP-70): before treatment
# [4] = test system: peripheral blood mononuclear cells; test: Glutamine-treated peripheral blood mononuclear cells; type: cell-based
# [5] = GLN 30 minutes after induction of peritonitis and sepsis
# [6] = non-pancreatic diagnoses, n = 7
smiles,measurement,setting,value
"NC(=O)CC[C@H](N)C(=O)O [GLN, Glutamine]","HSP 27 induction, earliest occurrence",HSP 72; unstressed rat heart,4 to 6 h
same,"HSP 27 induction, persistence up to",HSP 72; unstressed rat heart,48 to 72 h
same,HSP 70 and HSP 25 in heart and lung tissue,HSP 72; unstressed rats,enhance
same,HSP 72 expression in heart and lung tissue vs control (densitometry),"HSP 72; unstressed rats, GLN 0.15, 0.45, 0.75 g/kg over 12-15 minutes, tissue four hours post-GLN",significantly enhanced; also recorded: significantly increased
same,expression of IL-18,"[1]; 12, 18, and 24 hours post-2CLP",significantly attenuated
same,expression of IL-6,[1]; 6 hours post-2CLP,attenuated
same,expression of TNF-α,[1]; 6 hours post-2CLP,attenuated
same,lung HSP 72 expression versus control,[1]; following 2CLP,enhanced
same,5-day mortality rate following 2CLP,"[1]; single dose GLN 0.75 g/Kg one hour following surgery, control 78%",42%
same,HSP 70 and 23 following lethal endotoxemia,endotoxin-induced sepsis,enhanced
same,mortality following lethal endotoxemia,endotoxin-induced sepsis,reduced mortality
same,serum HSP 70 expression,"[2]; CLP model, rat",markedly enhanced; also recorded: approximate four-fold increase
same,deficient lung HSP 70 expression,[2]; [5],markedly enhanced
same,lung HSF-1 activation,[2]; [5],markedly enhanced
same,NAD+/NADH levels in lung tissue,[2]; following sepsis and peritonitis,nearly doubling
same,survival following peritonitis and polymicrobial sepsis,"[2]; rat, in vivo",significantly improve survival; also recorded: doubling of survival
same,survival following experimental SIRS,"experimental SIRS (CLP); 5 days, BSS 18%",61%
same,sHSP72 vs. BSS (ELISA),"experimental SIRS (CLP); GLN (given as ALA-GLN) 0.75 g/Kg 1 hour post-CLP, 6 hours post-CLP",significantly enhanced
same,level of infection,[3],lower level of infection
same,"HSP-70 levels at 1-week, higher than control patients by","serum HSP 70; 95% CI −0.01 to 5.64, p=0.050",2.82 units
same,"change in HSP-70 levels from baseline to 1-week, greater than control patients by","serum HSP 70; 95% CI −0.09 to 5.29, p=0.057",2.60 units
same,1-week HSP-70,"serum HSP 70; all diagnoses, n = 15",4.09 ± 4.70
same,HSP-70 change from baseline,"serum HSP 70; all diagnoses, n = 15",3.48 ± 4.53
same,LN(1-week HSP-70),"serum HSP 70; all diagnoses, n = 15",0.56 ± 1.63
same,LN(1-wk HSP/Baseline HSP),"serum HSP 70; all diagnoses, n = 15",1.93 ± 1.23
same,Baseline HSP-70,"serum HSP 70; all diagnoses, n = 15",0.61 ± 1.05
same,LN(Baseline HSP-70),"serum HSP 70; all diagnoses, n = 15",−1.37 ± 1.26
same,enhancement of serum HSP levels versus iso-nitrogenous control solution,"serum HSP 70; intravenous GLN, mixed critically ill patients, surgical ICU",four-fold enhancement
same,1-week HSP-70,serum HSP 70; [6],3.43 ± 5.17
same,HSP-70 change from baseline,serum HSP 70; [6],2.60 ± 4.77
same,LN(1-week HSP-70),serum HSP 70; [6],0.20 ± 1.70
same,LN(1-wk HSP/Baseline HSP),serum HSP 70; [6],1.63 ± 1.21
same,Baseline HSP-70,serum HSP 70; [6],0.83 ± 1.48
same,LN(Baseline HSP-70),serum HSP 70; [6],−1.43 ± 1.58
same,heat shock protein expression,[4],increase
same,tumor-necrosis alpha release,[4],significant attenuation
